Source: ChEMBL document CHEMBL3272130, “Synthesis and hypotensive activity of some cyclopentano-1,2,3,4-tetrahydroisoquinolines” (J Med Chem, 1977)

How the values were obtained:
Rattus norvegicus [1] = assay: Hypotensive activity in deoxycorticosterone acetate treated hypertensive CD rat assessed as change in blood pressure at 10 mg, ip after 2 hrs relative to control; type: functional
Rattus norvegicus [2] = assay: Hypotensive activity in deoxycorticosterone acetate treated hypertensive CD rat assessed as change in blood pressure at 10 mg, ip after 4 hrs relative to control; type: functional
Rattus norvegicus [3] = assay: Hypotensive activity in deoxycorticosterone acetate treated hypertensive CD rat assessed as change in blood pressure at 10 mg, ip after 24 hrs relative to control; type: functional
Rattus norvegicus [4] = assay: Hypotensive activity in deoxycorticosterone acetate treated hypertensive CD rat assessed as change in blood pressure at 5 mg, ip after 1 hr relative to control; type: functional
Rattus norvegicus [5] = assay: Hypotensive activity in deoxycorticosterone acetate treated hypertensive CD rat assessed as change in blood pressure at 5 mg, ip after 2 hrs relative to control; type: functional
Rattus norvegicus [6] = assay: Hypotensive activity in deoxycorticosterone acetate treated hypertensive CD rat assessed as change in blood pressure at 5 mg, ip after 4 hrs relative to control; type: functional
Rattus norvegicus [7] = assay: Hypotensive activity in deoxycorticosterone acetate treated hypertensive CD rat assessed as change in blood pressure at 5 mg, ip after 24 hrs relative to control; type: functional
Rattus norvegicus [8] = assay: Cardiovascular activity in deoxycorticosterone acetate treated hypertensive CD rat assessed as change in heart rate at 10 mg, ip after 2 hrs relative to control; type: ADME, organism-based; conditions: in vivo
Rattus norvegicus [9] = assay: Cardiovascular activity in deoxycorticosterone acetate treated hypertensive CD rat assessed as change in heart rate at 10 mg, ip after 4 hrs relative to control; type: ADME, organism-based; conditions: in vivo
Rattus norvegicus [10] = assay: Cardiovascular activity in deoxycorticosterone acetate treated hypertensive CD rat assessed as change in heart rate at 10 mg, ip after 24 hrs relative to control; type: ADME, organism-based; conditions: in vivo
Rattus norvegicus [11] = assay: Cardiovascular activity in deoxycorticosterone acetate treated hypertensive CD rat assessed as change in heart rate at 5 mg, ip after 1 hr relative to control; type: ADME, organism-based; conditions: in vivo
Rattus norvegicus [12] = assay: Cardiovascular activity in deoxycorticosterone acetate treated hypertensive CD rat assessed as change in heart rate at 5 mg, ip after 2 hrs relative to control; type: ADME, organism-based; conditions: in vivo
Rattus norvegicus [13] = assay: Cardiovascular activity in deoxycorticosterone acetate treated hypertensive CD rat assessed as change in heart rate at 5 mg, ip after 4 hrs relative to control; type: ADME, organism-based; conditions: in vivo
Rattus norvegicus [14] = assay: Cardiovascular activity in deoxycorticosterone acetate treated hypertensive CD rat assessed as change in heart rate at 5 mg, ip after 24 hrs relative to control; type: ADME, organism-based; conditions: in vivo
[15] = Toxicity in ip dosed Swiss-Webster mouse after 24 hrs; type: organism-based; conditions: in vivo
Rattus norvegicus [16] = assay: Hypotensive activity in deoxycorticosterone acetate treated hypertensive CD rat assessed as change in blood pressure at 25 mg, ip after 1 hr relative to control; type: functional
Rattus norvegicus [17] = assay: Hypotensive activity in deoxycorticosterone acetate treated hypertensive CD rat assessed as change in blood pressure at 25 mg, ip after 2 hrs relative to control; type: functional
Rattus norvegicus [18] = assay: Hypotensive activity in deoxycorticosterone acetate treated hypertensive CD rat assessed as change in blood pressure at 25 mg, ip after 4 hrs relative to control; type: functional
Rattus norvegicus [19] = assay: Hypotensive activity in deoxycorticosterone acetate treated hypertensive CD rat assessed as change in blood pressure at 25 mg, ip after 24 hrs relative to control; type: functional
Rattus norvegicus [20] = assay: Cardiovascular activity in deoxycorticosterone acetate treated hypertensive CD rat assessed as change in heart rate at 25 mg, ip after 1 hr relative to control; type: ADME, organism-based; conditions: in vivo
Rattus norvegicus [21] = assay: Cardiovascular activity in deoxycorticosterone acetate treated hypertensive CD rat assessed as change in heart rate at 25 mg, ip after 2 hrs relative to control; type: ADME, organism-based; conditions: in vivo
Rattus norvegicus [22] = assay: Cardiovascular activity in deoxycorticosterone acetate treated hypertensive CD rat assessed as change in heart rate at 25 mg, ip after 4 hrs relative to control; type: ADME, organism-based; conditions: in vivo
Rattus norvegicus [23] = assay: Cardiovascular activity in deoxycorticosterone acetate treated hypertensive CD rat assessed as change in heart rate at 25 mg, ip after 24 hrs relative to control; type: ADME, organism-based; conditions: in vivo
Rattus norvegicus [24] = assay: Hypotensive activity in deoxycorticosterone acetate treated hypertensive CD rat assessed as change in blood pressure at 4 mg, ip after 1 hr relative to control; type: functional
Rattus norvegicus [25] = assay: Hypotensive activity in deoxycorticosterone acetate treated hypertensive CD rat assessed as change in blood pressure at 4 mg, ip after 2 hrs relative to control; type: functional
Rattus norvegicus [26] = assay: Hypotensive activity in deoxycorticosterone acetate treated hypertensive CD rat assessed as change in blood pressure at 4 mg, ip after 4 hrs relative to control; type: functional
Rattus norvegicus [27] = assay: Hypotensive activity in deoxycorticosterone acetate treated hypertensive CD rat assessed as change in blood pressure at 4 mg, ip after 24 hrs relative to control; type: functional
Rattus norvegicus [28] = assay: Cardiovascular activity in deoxycorticosterone acetate treated hypertensive CD rat assessed as change in heart rate at 4 mg, ip after 1 hr relative to control; type: ADME, organism-based; conditions: in vivo
Rattus norvegicus [29] = assay: Cardiovascular activity in deoxycorticosterone acetate treated hypertensive CD rat assessed as change in heart rate at 4 mg, ip after 2 hrs relative to control; type: ADME, organism-based; conditions: in vivo
Rattus norvegicus [30] = assay: Cardiovascular activity in deoxycorticosterone acetate treated hypertensive CD rat assessed as change in heart rate at 4 mg, ip after 4 hrs relative to control; type: ADME, organism-based; conditions: in vivo
Rattus norvegicus [31] = assay: Cardiovascular activity in deoxycorticosterone acetate treated hypertensive CD rat assessed as change in heart rate at 4 mg, ip after 24 hrs relative to control; type: ADME, organism-based; conditions: in vivo

Compound: COc1c2c(c3c(c1OC)CCNC3)CCC2
- Activity (Rattus norvegicus [1]): -13.2%
- Activity (Rattus norvegicus [2]): 2.4%
- Activity (Rattus norvegicus [3]): 1%
- Activity (Rattus norvegicus [4]): -9.5%
- Activity (Rattus norvegicus [5]): -3%
- Activity (Rattus norvegicus [6]): -6.5%
- Activity (Rattus norvegicus [7]): 1.8%
- Activity (Rattus norvegicus [8]): 4.7%
- Activity (Rattus norvegicus [9]): 9%
- Activity (Rattus norvegicus [10]): -2.6%
- Activity (Rattus norvegicus [11]): -5.2%
- Activity (Rattus norvegicus [12]): -1.4%
- Activity (Rattus norvegicus [13]): -8.5%
- Activity (Rattus norvegicus [14]): -12.2%
- LD50 at 24 h [15]: 25 mg/kg

Compound: Br.CCC(C)CN1CCc2c(c3c(c(OC)c2OC)CCC3)C1 (stereo not drawn)
- Activity (Rattus norvegicus [16]): -17.2%
- Activity (Rattus norvegicus [17]): -12.6%
- Activity (Rattus norvegicus [18]): -6.7%
- Activity (Rattus norvegicus [19]): 1.3%
- Activity (Rattus norvegicus [20]): 13.7%
- Activity (Rattus norvegicus [21]): 11.8%
- Activity (Rattus norvegicus [22]): 5%
- Activity (Rattus norvegicus [23]): -0.3%
- LD50 at 24 h [15]: 178 mg/kg

Compound: Br.COc1c2c(c3c(c1OC)CCN(C)C3)CCC2
- Activity (Rattus norvegicus [24]): 13%
- Activity (Rattus norvegicus [25]): 12.2%
- Activity (Rattus norvegicus [26]): -2.6%
- Activity (Rattus norvegicus [27]): 19.7%
- Activity (Rattus norvegicus [28]): 13.2%
- Activity (Rattus norvegicus [29]): 11.2%
- Activity (Rattus norvegicus [30]): -0.4%
- Activity (Rattus norvegicus [31]): 1.8%
- LD50 at 24 h [15]: 10 mg/kg
